{"source": "paper PMC10251509", "about": "“Ultrafast Fragment Screening Using Photo-Hyperpolarized (CIDNP) NMR” (Journal of the American Chemical Society, 2023)", "key": {"PIN1 [1]": {"biological_target": "T1, PIN1 (Homo sapiens, UniProt Q13526)", "T1 construct": "polyhistidine (N); made in house; host or cells: Escherichia coli BL21 (DE3)", "T1 sequence (Q13526 whole entry, the tested form may be a part)": "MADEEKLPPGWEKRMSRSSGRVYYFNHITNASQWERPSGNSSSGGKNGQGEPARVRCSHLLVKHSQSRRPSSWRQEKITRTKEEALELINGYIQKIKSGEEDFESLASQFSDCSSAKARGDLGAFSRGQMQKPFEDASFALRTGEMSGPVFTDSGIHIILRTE", "test": "photo-CIDNP 1D 1H NMR fragment screening (polarization ratio) against PIN1", "format": "binding", "procedure": "The combination of these two effects yields the quenching of the photo-CIDNP hyperpolarized signal in the case of binding to a protein, as L decreases and R1,eff increases.\nIt is also overexpressed in many human cancer cells.[16] It is thus regarded as a potential drug target, and several studies attempted to discover hits and unravel the structure–activity relationship.[3],[4],[36] […] The NMR experiments were performed using single-scan NMR experiments, comprising light irradiation, an excitation pulse, and a water suppression scheme, as described previously.[13] Although each experiment was recorded in only 2 s, the limiting step was the sample tube exchange. Indeed, the optic fiber needed to be plugged into the tubes while changing the samples, which required ca. 15 s per tube using a house-made connector tightening the tube and the optic fiber with O-rings (Figure S2). Removing the sample from and bringing the new sample into the spectrometer requires an additional 30 s, and a shimming step must be performed for each new tube (30 s).\nAs proposed in the theoretical part, the photo-CIDNP traces were recorded in the presence and absence of PIN1. The peak intensity and chemical shifts were analyzed pairwise to identify the hits. […] The reference apo-PIN1 sample was spiked with 1.9 μL of DMSO to compensate for the DMSO that is introduced upon fragment addition, as the fragments are stored in stock solutions of 5 mM 90% DMSO-d6 and 10% D2O.\nThe laser used was a Thorlabs L450P1600MM, a diode laser emitting at 450 nm. The laser light was coupled (using appropriate coupling optics) into an optical fiber (Thorlabs, FG950UEC) of length 10 m and a diameter of 0.95 mm. The end of the fiber was inserted into the sample solution inside the 3 mm NMR glass tube to a depth of about 5 mm above the NMR coil region. The library QC and the control binding experiments for PIN1 were measured on a Bruker Avance III HD 600 MHz spectrometer equipped with a cryoprobe and SampleJet."}, "PIN1 [2]": {"biological_target": "T1, PIN1", "test": "T1ρ relaxation NMR experiment, PIN1", "format": "binding", "procedure": "For comparison, the signal decay during a T1ρ NMR experiment was measured at the same sample conditions as the photo-CIDNP experiments (Table 2). The signal decay between two T1ρ relaxation delays of 10 and 400 ms is measured in the absence and presence of the PIN1 protein. The increase in signal decay is calculated as the ratio of the integral’s ratio, i.e., (Γ400ms/Γ10ms)PL/(Γ400ms/Γ10ms)L. The most affine binders, compounds 1 and 13, show a significant reduction of the T1ρ decay ratio upon PIN1 addition, witnessing an increase in the relaxation decay. […] The signal-to-noise of the T1ρ spectra were ca. 300 for a number of transients of 512, corresponding to a measurement time of 25 min, while the photo-CIDNP experiments provided a signal-to-noise of ca. 100 for a single-scan experiment corresponding to a two second’s experiment. […] The signal-to-noise of the STD NMR experiments[1] was only 25 and 19 for compounds 1 and 13, respectively, after 50 min measurement corresponding to a 512 transient’s experiment.\nFor the control binding experiments using ligand-induced chemical shift perturbation analysis, standard [^15N, ^1H]-HSQC spectra were measured. The detailed conditions for the 2D experiments acquired at 600 MHz ^1H NMR frequency were the 100 μM ^15N-labeled PDZ2 domain in the absence and presence of equimolar peptide in PDZ2 buffer and at a temperature of 298 K and 50 μM ^15N-labeled PIN1 in the absence and presence of 200 μM ligands in PIN1 buffer and at a temperature of 298 K, respectively. Typically, 220 (t1,max (^15N) = 47.6 ms) × 1024 (t2,max (^1H) = 60.8 ms) complex points, an interscan delay of 0.8 s, and 12 scans per increment were measured. The data was zero–filled to 2048 points in the direct proton dimension and to 256 points in the ^15N–dimension. Processing was done with a shifted cosine window function for both dimensions. […] The spinlock times were set at 10 and 400 ms. The STD experiments were measured at 298 K with 16,384 (tmax (^1H) = 974 ms) complex points and 512 scans per increment. The on-resonance saturation pulse was set at 0 ppm, and the off-resonance saturation pulse was set to 40 ppm with a saturation time of 1 s."}}}
{"smiles": "Cc1cccc(-c2nc(C)c(C(=O)O)[nH]2)c1", "note": "[Compound 13, reference compound]", "values": [{"measurement": "polarization ratio", "setting": "PIN1 [1]; 50 μM ligand, ±25 μM PIN1, 20 μM fluorescein, 0 = total binding, 1 = no interaction, hit <0.8", "value": 0.38}, {"measurement": "polarization ratio", "setting": "PIN1 [1]; low concentration: 20 μM ligand (compound 1: 5 μM), ±2 μM PIN1, single scan", "value": 0.73}, {"measurement": "T1ρ decay ratio", "setting": "PIN1 [2]; 200 μM ligand, ±20 μM protein, (Γ400ms/Γ10ms)PL/(Γ400ms/Γ10ms)L", "value": 0.45}, {"measurement": "T1ρ decay ratio", "setting": "PIN1 [2]; low concentration, same sample conditions: 20 μM ligand (compound 1: 5 μM), ±2 μM PIN1", "value": 0.76}]}
